# Values of other authors, collected in patent publication US20120035103A1 (priority 2010, published 2012).
# Test system: cells that line the nasal cavity
structure (smiles),measurement,setting,value
"CCCCCCCCCCCCCCO[C@@H]1O[C@H](CO)[C@@H](O[C@H]2O[C@H](CO)[C@@H](O)[C@H](O)[C@H]2O)[C@H](O)[C@H]1O [TDM, Tetradecyl-β-d-maltoside]",Toxicity to the cells that line the nasal cavity,0.125% TDM,minimal toxicity
same,Appearance of the cells that line the nasal cavity,"0.50% TDM, versus 0.125% TDM",became more evident
